The target of series [1] is T1, E. coli NfsA (Escherichia coli, UniProt P17117).
T1 construct: his6; made in house
As to the kind of experiment: Purified enzyme kinetics (NADPH oxidation at 340 nm). Particulars: 0.25 mM NADPH, varying EF5. It is filed as biochemical. As to the method: FIG. 12 illustrates the purified enzyme kinetic data for eleven E. coli nitroreductases with EF5 as a substrate. Reactions contained 10 mM Tris-Cl (pH 7.0), 4% DMSO, 0.25 mM NADPH and varying EF5 concentrations. Reactions were initiated by addition of 10 μl enzyme and changes in absorbance were measured for 15 s at 340 nm on a spectrophotometer to monitor NTR-catalysed NADPH oxidation.
For EF5 and other 2-NI bio-imaging agents, steady-state enzyme kinetics with purified NTRs were assessed spectrophotometrically at 340 nm to monitor NTR catalyzed NADPH oxidation. The molar extinction co-efficient of NADPH (6,220 M^−1 cm^−1) was used for the calculation of enzyme activity. For PR-104A, reduction was measured directly at 400 nm (ε=6,000 M^−1 cm^−1); and for CB1954, reduction was measured directly at 420 nm (ε=1,200 M^−1 cm^−1). Reactions were performed in 100 μl in UVettes (Eppendorf), using the 2 mm light path length. Reactions contained 10 mM Tris-Cl (pH 7.0), 4% DMSO, 0.25 mM NADPH and varying EF5 or PR-104A concentrations. Reactions were initiated by addition of 10 μl enzyme and changes in absorbance were measured for 15 s (during linearity). For calculation of Km and kcat, substrate concentrations were varied from ˜0.2×Km to 5×Km. Non-linear regression analysis and Michaelis-Menten curve fitting was performed using Sigmaplot 10.0 (Systat Software Inc.).

For series [2], the system named is nfsA-expressing cells in mixed HCT116 xenografts. As to the kind of experiment: Immunohistochemical detection of EF5 binding in tumour xenograft sections. It is filed as in vivo, mice. The settings on record: constant exposure time 0.5 s. As for the experimental part:
FIG. 16 (A) illustrates immunohistochemical detection of EF5 binding in human tumour xenografts harbouring 0%, 3%, 12% or 20% HCT-116^nfsA expressing cells. FIG. 16 (A) further illustrates Fluorescent microscope pictures of tumour sections, and FIG. 16 (B) illustrates flow cytometry histograms of EF5/CY5 fluorescence to confirm % NfsA expressing cells of individual tumour.
In vivo: mice were treated with 60 mg/kg EF5 (ip) and left for 24 hrs. Tumour tissue was excised, fixed in 10% formalin dissolved in PBS (48 h), transferred to 70% ethanol and embedded in paraffin. Sections (5 μm) were cut, mounted onto poly-L-lysine coated glass slides and heat fixed for 1 h at 60° C. Sections were dewaxed, rehydrated, washed in Milli-Q water and then rinsed in 0.01 M Tris buffered saline (TBS, pH 7.4). Antigen retrieval was achieved by boiling samples in 10 mM sodium citrate buffer pH 6 for 25 min. Sections were washed with TBS containing 0.1% Tween-20 (TBS-T) and blocked with 1% mouse serum in TBS. After rinsing, the samples were incubated for 2 hr at room temperature with 100 μg/ml anti-EF5 (Alexa-488) primary antibody diluted in PBS containing 0.2% Tween-20. After rinsing in with TBS-T the coverslips were mounted with Prolong Gold antifade (Invitrogen) and sealed with nail varnish. […] Images were analysed and overlaid using Adobe Photoshop software (Adobe Photoshop 4.0).

For series [3] the following is noted: cited from earlier work.
Series [4] concerns HCT116 cells expressing E. coli NfsA. It is filed as cell-based, human. Particulars: 18 hrs exposure, 5 days regrowth; IC50 of WT versus NTR-expressing cells. As for the experimental part:
FIGS. 10 (B) and 10 (C) illustrates the results of evaluation of 2-nitroimidazole clinical imaging candidates with E. coli and non-E. coli NTRs. Stably-expressing cells were treated with varying concentration of 2-nitroimidazole prodrugs diluted in αMEM+5% FCS+P/S. Cells were exposed to prodrug for 18 hrs, washed and left to regrow for 5 days. IC50 was determined as the concentration of prodrug required to inhibit cell growth by 50% of untreated controls. IC50 values are mean for ≥2 independent experiments. WT:NTR ratio-ratio of IC50 means from WT cells versus NTR-expressing cell lines.
FIG. 21 illustrates antiproliferative activity (IC50 value) of prodrug candidates with E. coli and non-E. coli nitroreductases. Stably-expressing cells were treated with varying concentration of prodrug diluted in αMEM+5% FCS+P/S. Cells were exposed to prodrug for 18 hrs, washed and left to regrow for 5 days. IC50 was determined as the concentration of prodrug required to inhibit cell growth by 50% of untreated controls. IC50 values are mean for ≥2 independent experiments. WT:NTR ratio-interexperimental ratio of IC50 means from WT cells versus NTR-expressing cell lines.
Isolated NTR gene sequences were subject to PCR and introduced in the bicistronic plasmid F579 via Gateway cloning (Invitrogen) as described by Prosser et al. (2010, Biochem Pharmacol, 79, 678-687). Stably transfected cell lines were created by transfection of the relevant plasmid using FuGENE 6 Transfection Reagent (Roche). Transfected cell populations were maintained by passage in puromycin
Cells were passaged in alpha-Minimal Essential Media, (αMEM; Gibco) supplemented with 5% FBS, (GIBCO NZ) without antibiotics. Cell were passaged for <3 months from frozen stocks and confirmed Mycoplasma free (PCR-ELISA; Roche Diagnostics). Cells were aliquoted into the 96-well plate (100 μL/well) and cells were left to attach (≥4 hrs). […] Plates were read on an ELx 808 Absorbance Microplate Reader (Bio-Tek Instruments). Absorbance was measured at 490 nm and 450 nm (final absorbance 490-450). […]

T1 sequence (P17117 whole entry): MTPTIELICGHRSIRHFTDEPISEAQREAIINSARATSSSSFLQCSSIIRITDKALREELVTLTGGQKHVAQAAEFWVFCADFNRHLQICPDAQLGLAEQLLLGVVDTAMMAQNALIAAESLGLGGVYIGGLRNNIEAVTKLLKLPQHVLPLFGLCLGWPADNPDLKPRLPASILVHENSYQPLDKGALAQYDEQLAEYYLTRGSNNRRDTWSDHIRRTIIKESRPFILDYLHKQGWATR

Regarding `O=C(Cn1ccnc1[N+](=O)[O-])NCC(F)(F)C(F)(F)F` [EF5, 2-(2-nitro-1H-imidazol-1-yl)-N-(2,2,3,3,3-pentafluoropropyl)acetamide], in series [1], the “enzyme kinetics with EF5 as substrate, rank among 11 E. coli NTRs (in words)” value was “highest kcat and kcat/Km ratio”. For the same compound, the “EF5 retention versus hypoxic activation in HCT-116 parental cells (in words)” value in series [2] was “clearly superior”. The “tolerability (in words)” value in series [3] (EF5 21 mg/kg, injected) was “without any toxicities”. Moreover, the “concentration-time achieved in human plasma” value in series [3] (cold EF5 9 mg/kg) was 0.89 mM-hr. Besides, the “WT:NTR ratio (maximum growth inhibitory effect)” value in series [4] was 1600 fold.

Values taken from patent US10357577B2, “Bacterial nitroreductase enzymes and methods relating thereto” (AUCKLAND UNISERVICES LIMITED, priority 2010, dated 2019).
